Consider 59 compounds from patent US20250019387A1 (Frontier Medicines Corporation, priority 0001, published 2025).

Chain of KRAS G12C and cRAF (Ras-binding domain) interaction (P01116 other isoform, or with tags, fused parts or gaps G12C/C51S/C80L/C118S): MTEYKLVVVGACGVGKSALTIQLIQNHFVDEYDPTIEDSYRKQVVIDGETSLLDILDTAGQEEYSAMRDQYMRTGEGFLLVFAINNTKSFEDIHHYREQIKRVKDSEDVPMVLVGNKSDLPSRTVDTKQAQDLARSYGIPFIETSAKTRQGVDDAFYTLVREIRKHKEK

The target in the experiment is KRAS G12C and cRAF (Ras-binding domain) interaction (Homo sapiens (Human), UniProt P01116, C118S/C51S/C80L/G12C). As to the kind of experiment: Inhibition of KRAS G12C and cRAF binding (AlphaScreen). The note with it: additional exemplary compounds; KRAS G12C and cRAF binding; read-out: RAF1 RBD IC50. How it is done:
Compounds were diluted in 100% DMSO and each compound concentration was spotted at 200 nl/well onto low volume, white 384 well plates. […] Plates were incubated for 19-20 hours. A mixture of RBD and the AlphaScreen streptavidin donor and glutathione acceptor beads diluted in 25 mM Hepes, pH 7.4, 150 mM NaCl, 5 mM MgCl2, 0.01% TritonX-100 and 2% DMSO was then added at 10 ul/well and incubated for 60-90 minutes before the samples were read for emission at 570 nm after excitation of the donor beads at 680 nm. All incubations were performed at room temperature. […] IC50s were determined using nonlinear regression fit of [inhibitor]vs. response (4 parameters). […]
A general note: Alpha assays give light when donor and acceptor beads are brought close together.
A word on the IC50: it is the concentration that gives 50% inhibition. `CN(C)C/C=C/C(=O)N1CC[C@@H](N(C)c2nc(OC[C@@]34CCCN3C[C@H](F)C4)nc3c2CCN(c2cccc4ccc(F)c(Cl)c24)C3)C1`: the IC50 was in the range of 10 to 100 nM. With `C=CC(=O)N1C[C@H](N(C)c2nc(OCC34CCCN3CCC4)nc3c2CCN(c2cccc4cccc(Cl)c24)C3)C[C@H]1C`, the IC50 was above 500 nM.

Turning to `C=CC(=O)N1CCC[C@@H](N(C)c2nc(OCC34CCCN3CCC4)nc3c(F)c(-c4cccc5cccc(Cl)c45)ncc23)C1`, the IC50 is above 500 nM. The figure for `C=CC(=O)N1CC(N(C)c2nc(OCC34CCCN3CCC4)nc3c2CCN(c2cccc4cccc(Cl)c24)C3)C1` is above 500 nM; for `C=CC(=O)N1CC(N(C)c2nc(OCC34CCCN3CCC4)nc3c(F)c(-c4cccc5cccc(Cl)c45)ncc23)C1` it is above 500 nM; for `C/C=C/C(=O)CCN(C)c1nc(OC[C@@H]2CCCN2C)nc2c1CCN(c1cccc3ccccc13)C2` it is above 500 nM. On to `C=CC(=O)N1CC(N(C)c2nc(OC[C@@]34CCCN3C[C@H](F)C4)nc3c2CCN(c2cccc4cccc(Cl)c24)C3)C1`, for which the IC50 was above 500 nM.

`C=CC(=O)C[C@H](C)N(C)c1nc(OC[C@@H]2CCCN2C)nc2c1CCN(c1cccc3ccccc13)C2`: the IC50 was above 500 nM. The figure for `C=CC(=O)N1CC(CN(C)c2nc(OCC34CCCN3CCC4)nc3c(F)c(-c4cccc5cccc(Cl)c45)ncc23)C1` is 10 to 100 nM; for `C=CC(=O)[C@H](C)CN(C)c1nc(OC[C@@H]2CCCN2C)nc2c1CCN(c1cccc3ccccc13)C2` it is above 500 nM; for `CN(c1nc(OCC23CCCN2CCC3)nc2c1CCN(c1cccc3cccc(Cl)c13)C2)[C@@H]1CCN(C(=O)/C=C/C2(C)COC2)C1` it is above 500 nM. Next, `C=CC(=O)[C@@H](C)CN(C)c1nc(OC[C@@H]2CCCN2C)nc2c1CCN(c1cccc3ccccc13)C2`: 10 to 100 nM.

Regarding `CCN(CC)C/C=C/S(=O)(=O)CCN(C)c1nc(OC[C@@H]2CCCN2C)nc2c(F)c(-c3cccc4cccc(Cl)c34)ncc12`, the half-inhibitory concentration (IC50) lay within 10 to 100 nM. In the case of `CCOC/C=C/S(=O)(=O)CCN(C)c1nc(OC[C@@H]2CCCN2C)nc2c(F)c(-c3cccc4cccc(Cl)c34)ncc12`, the IC50 is above 500 nM. The figure for `CCN(CC)C/C=C/S(=O)(=O)CCN(C)c1nc(OC[C@@]23CCCN2C[C@H](F)C3)nc2c1CCN(c1cccc3cccc(Cl)c13)C2` is below 10 nM. The figure for `C=CC(=O)N1C[C@H](N(C)c2nc(OCC34CCCN3CCC4)nc3c(F)c(-c4cccc5cccc(Cl)c45)ncc23)C[C@H]1C` is above 500 nM. Next, `C=CC(=O)N1CCC[C@@H](N(C)c2nc(OCC34CCCN3CCC4)nc3c2CCN(c2cccc4cccc(Cl)c24)C3)C1`: above 500 nM; `C=CC(=O)N1C[C@H](N(C)c2nc(OCC34CCCN3CCC4)nc3c2CCN(c2cccc4cccc(Cl)c24)C3)[C@H]1C`: above 500 nM. On to `C=CC(=O)N1C[C@H](N(C)c2nc(OCC34CCCN3CCC4)nc3c(F)c(-c4cccc5cccc(Cl)c45)ncc23)[C@H]1C`, for which the IC50 is above 500 nM. For the compound `CN(CCS(=O)(=O)/C=C/CC1CC1)c1nc(OCC23CCCN2CCC3)nc2c1CCN(c1cccc3cccc(Cl)c13)C2`, the IC50 is above 500 nM.

Regarding `CN(CCS(=O)(=O)/C=C/CC1CC1)c1nc(OC[C@@H]2CCCN2C)nc2c(F)c(-c3cccc4cccc(Cl)c34)ncc12`, the half-inhibitory concentration (IC50) is above 500 nM. Next, `C=CC(=O)N1CCC(N(C)c2nc(OCC34CCCN3CCC4)nc3c2CCN(c2cccc4cccc(Cl)c24)C3)C1CC#N` (centres unmarked): above 500 nM; `C=CC(=O)N1C[C@H](N(C)c2nc(OCC34CCCN3CCC4)nc3c2CCN(c2cccc4cccc(Cl)c24)C3)CC1C#N` (some centres unmarked): 100 to 500 nM.

For the compound `C=CC(=O)N1CC[C@@H](N(C)c2nc(OCC34CCCN3CCC4)nc3c(F)c(-c4cccc5ccc(F)c(Cl)c45)ncc23)C1`, the IC50 lay within 10 to 100 nM. The figure for `C=CC(=O)N1CC[C@@H](N(C)c2nc(OC[C@@]34CCCN3C[C@H](F)C4)nc3c(F)c(-c4cccc5ccc(F)c(Cl)c45)ncc23)C1` is 10 to 100 nM; for `C=CC(=O)N1C[C@@H](N(C)c2nc(OCC34CCCN3CCC4)nc3c(F)c(-c4cccc5cccc(Cl)c45)ncc23)C[C@@H]1CC#N` it is above 500 nM; for `CN(C)C/C=C/C(=O)N1CC[C@@H](N(C)c2nc(OC[C@@]34CCCN3C[C@H](F)C4)nc3c(F)c(-c4cccc5ccc(F)c(Cl)c45)ncc23)C1` it is 10 to 100 nM. Consider `C=CC(=O)N1CC[C@H]2[C@@H]1CCN2c1nc(OCC23CCCN2CCC3)nc2c1CCN(c1cccc3cccc(Cl)c13)C2`, for which the IC50 was above 500 nM. The figure for `C=CC(=O)N1CC[C@H]2[C@@H]1CCN2c1nc(OC[C@@]23CCCN2C[C@H](F)C3)nc2c1CCN(c1cccc3cccc(Cl)c13)C2` is above 500 nM. Take `C=CC(=O)N1CC[C@H]2[C@H]1CCN2c1nc(OCC23CCCN2CCC3)nc2c1CCN(c1cccc3cccc(Cl)c13)C2`: the IC50 was above 500 nM. Next, `C=CC(=O)N1CC[C@H]2[C@H]1CCN2c1nc(OC[C@@]23CCCN2C[C@H](F)C3)nc2c1CCN(c1cccc3cccc(Cl)c13)C2`: above 500 nM. Turning to `C=CS(=O)(=O)[C@H]1CC[C@@H](N(C)c2nc(OCC34CCCN3CCC4)nc3c2CCN(c2cccc4cccc(Cl)c24)C3)C1`, the IC50 was 10 to 100 nM. The figure for `C=CC(=O)CCN(C)c1nc(OCC2CCN2C)nc2c1CCN(c1cccc3cccc(Cl)c13)C2` (centres unmarked) is 10 to 100 nM; for `C=CS(=O)(=O)[C@@H]1CC[C@H](N(C)c2nc(OCC34CCCN3CCC4)nc3c2CCN(c2cccc4cccc(Cl)c24)C3)C1` it is above 500 nM. The figure for `CN(c1nc(OCC23CCCN2CCC3)nc2c(F)c(-c3cccc4ccc(F)c(Cl)c34)ncc12)[C@@H]1CCN(C#N)C1` is 10 to 100 nM. For the compound `CN(C)C/C=C/C(=O)N1CC[C@@H](N(C)c2nc(OC[C@@H]3CCCN3C)nc3c(F)c(-c4cccc5ccc(F)c(Cl)c45)ncc23)C1`, the IC50 lay within 10 to 100 nM.

Consider `CN(C)C/C=C/C(=O)N1CC[C@@H](N(C)c2nc(OCC34CCCN3CCC4)nc3c(F)c(-c4cccc5ccc(F)c(Cl)c45)ncc23)C1`, for which the IC50 lay in the range of 10 to 100 nM.

`C=CC(=O)N1C[C@H](N(C)c2nc(OCC34CCCN3CCC4)nc3c2CCN(c2cccc4cccc(Cl)c24)C3)C[C@@H]1C#N`: the IC50 is 100 to 500 nM. Next, `C=CC(=O)N1C[C@H](N(C)c2nc(OCC34CCCN3CCC4)nc3c2CCN(c2cccc4cccc(Cl)c24)C3)C[C@H]1C#N`: 10 to 100 nM. Next, `C=CC(=O)N1CC(CN(C)c2nc(OC[C@@]34CCCN3C[C@H](F)C4)nc3c(F)c(-c4cccc5ccc(F)c(Cl)c45)ncc23)C1`: 10 to 100 nM. Next, `C=CC(=O)N1[C@H]2CC[C@@H]1[C@@H](N(C)c1nc(OC[C@@]34CCCN3C[C@H](F)C4)nc3c1CCN(c1cccc4cccc(Cl)c14)C3)C2`: above 500 nM; `N#CN1CC[C@H]2[C@H]1CCN2c1nc(OC[C@@]23CCCN2C[C@H](F)C3)nc2c(F)c(-c3cccc4cccc(Cl)c34)ncc12`: 100 to 500 nM; `N#CN1CC[C@H]2[C@@H]1CCN2c1nc(OC[C@@]23CCCN2C[C@H](F)C3)nc2c(F)c(-c3cccc4cccc(Cl)c34)ncc12`: above 500 nM. As for `CN1CCC[C@H]1COc1nc(N(C)[C@@H]2CCN(C#N)C2)c2cnc(-c3cccc4ccc(F)c(Cl)c34)c(F)c2n1`, the IC50 is 100 to 500 nM. Next, `CN(C)C/C=C/C(=O)N1CC(CN(C)c2nc(OCC34CCCN3CCC4)nc3c(F)c(-c4cccc5ccc(F)c(Cl)c45)ncc23)C1`: 10 to 100 nM.

Turning to `CN(C)C/C=C/S(=O)(=O)C1CCCN(c2nc(OCC34CCCN3CCC4)nc3c2CCN(c2cccc4cccc(Cl)c24)C3)C1` (centres unmarked), the IC50 fell in the range of 10 to 100 nM. The figure for `C=CC(=O)N1C[C@@H](N(C)c2nc(OC[C@@H]3CCCN3C)nc3c(F)c(-c4cccc5cccc(Cl)c45)ncc23)C[C@@H]1CC#N` is above 500 nM; for `C=CC(=O)N1CC[C@@H](N(C)c2nc(OC[C@@]34CCCN3C[C@H](F)C4)nc3c2CCN(c2cc(O)cc4ccccc24)C3)C1` it is 100 to 500 nM; for `C=CC(=O)N1CCC(N(c2nc(OCC34CCCN3CCC4)nc3c(F)c(-c4cccc5cccc(Cl)c45)ncc23)C2CC2)C1` (centres unmarked) it is above 500 nM. The figure for `C=CC(=O)N1CC(CN(C)c2nc(OC[C@]34CCCN3C[C@@H](F)C4)nc3c2CCN(c2cccc4cccc(Cl)c24)C3)C1` is 100 to 500 nM.

Turning to `C=CC(=O)N1CC(CN(C)c2nc(OC[C@]34CCCN3C[C@@H](F)C4)nc3c(F)c(-c4cccc5cccc(Cl)c45)ncc23)C1`, the IC50 was 100 to 500 nM.

On to `C=CC(=O)N1CC[C@@H](N(C)c2nc(OC[C@]34CCCN3C[C@@H](F)C4)nc3c(F)c(-c4cccc5cccc(Cl)c45)ncc23)C1`, for which the IC50 was 100 to 500 nM.

As to `C=CC(=O)N1CC[C@@H](N(C)c2nc(OC[C@]34CCCN3C[C@@H](F)C4)nc3c2CCN(c2cccc4cccc(Cl)c24)C3)C1`, the IC50 was above 500 nM. The figure for `Cc1noc(/C=C/C(=O)N2CCN(c3nc(OC[C@@]45CCCN4C[C@H](F)C5)nc4c3CCN(c3cccc5cccc(Cl)c35)C4)CC2)n1` is above 500 nM; for `CC(C)c1noc(/C=C/C(=O)N2CCN(c3nc(OCC45CCCN4CCC5)nc4c3CCN(c3cccc5cccc(Cl)c35)C4)CC2)n1` it is above 500 nM; for `CC(C)c1noc(/C=C/C(=O)N2CCN(c3nc(OC[C@@]45CCCN4C[C@H](F)C5)nc4c3CCN(c3cccc5cccc(Cl)c35)C4)CC2)n1` it is above 500 nM.

For `C=CC(=O)N1CC[C@@H](N(CC)c2nc(OC[C@@]34CCCN3C[C@H](F)C4)nc3c(F)c(-c4cccc5cccc(Cl)c45)ncc23)C1`, the IC50 is above 500 nM. In the case of `C=CC(=O)N1CCC(N(c2nc(OCC34CCCN3CCC4)nc3c2CCN(c2cccc4cccc(Cl)c24)C3)C2CC2)C1` (centres unmarked), the IC50 was above 500 nM. Next, `C=CC(=O)N1CCC(N(c2nc(OC[C@@]34CCCN3C[C@H](F)C4)nc3c2CCN(c2cccc4cccc(Cl)c24)C3)C2CC2)C1` (some centres unmarked): above 500 nM.
